In PubChem BioAssay (NCI):
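Cells were grown in 96-well plates and exposed to each compound for 48 hours at five concentrations; endpoints were interpolated linearly between bracketing concentrations, or set to the highest concentration if not reached. GI50: concentration for 50% inhibition of growth. TGI is the concentration that stops growth completely.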

What was measured:
Experiment in all cases: NCI tumour cell line growth inhibition, 48 h
786-0 renal = tested on: 786-0 renal
A498 renal = tested on: A498 renal
A549 NSCLC = tested on: A549 NSCLC
ACHN renal = tested on: ACHN renal
BT-549 breast = tested on: BT-549 breast
CAKI-1 renal = tested on: CAKI-1 renal
CCRF-CEM leukemia = tested on: CCRF-CEM leukemia
COLO 205 colon = tested on: COLO 205 colon
DU-145 prostate = tested on: DU-145 prostate
EKVX NSCLC = tested on: EKVX NSCLC
HCT-116 colon = tested on: HCT-116 colon
HCT-15 colon = tested on: HCT-15 colon
HOP-62 NSCLC = tested on: HOP-62 NSCLC
HOP-92 NSCLC = tested on: HOP-92 NSCLC
HS 578T breast = tested on: HS 578T breast
HT29 colon = tested on: HT29 colon
IGROV1 ovarian = tested on: IGROV1 ovarian
K-562 leukemia = tested on: K-562 leukemia
KM12 colon = tested on: KM12 colon
LOX IMVI melanoma = tested on: LOX IMVI melanoma
M14 melanoma = tested on: M14 melanoma
MALME-3M melanoma = tested on: MALME-3M melanoma
MCF7 breast = tested on: MCF7 breast
MDA-MB-231 breast = tested on: MDA-MB-231 breast
MDA-MB-435 = tested on: MDA-MB-435
MOLT-4 leukemia = tested on: MOLT-4 leukemia
NCI-H226 lung = tested on: NCI-H226 lung
NCI-H23 lung = tested on: NCI-H23 lung
NCI-H460 lung = tested on: NCI-H460 lung
NCI-H522 lung = tested on: NCI-H522 lung
NCI/ADR-RES ovarian = tested on: NCI/ADR-RES ovarian
OVCAR-3 ovarian = tested on: OVCAR-3 ovarian
OVCAR-4 ovarian = tested on: OVCAR-4 ovarian
OVCAR-5 ovarian = tested on: OVCAR-5 ovarian
OVCAR-8 ovarian = tested on: OVCAR-8 ovarian
PC-3 prostate = tested on: PC-3 prostate
RPMI-8226 leukemia = tested on: RPMI-8226 leukemia
RXF 393 renal = tested on: RXF 393 renal
SF-268 CNS = tested on: SF-268 CNS
SF-295 CNS = tested on: SF-295 CNS
SF-539 CNS = tested on: SF-539 CNS
SK-MEL-2 melanoma = tested on: SK-MEL-2 melanoma
SK-MEL-28 melanoma = tested on: SK-MEL-28 melanoma
SK-MEL-5 melanoma = tested on: SK-MEL-5 melanoma
SK-OV-3 ovarian = tested on: SK-OV-3 ovarian
SN12C renal = tested on: SN12C renal
SNB-19 CNS = tested on: SNB-19 CNS
SNB-75 CNS = tested on: SNB-75 CNS
SR leukemia = tested on: SR leukemia
SW-620 colon = tested on: SW-620 colon
T-47D breast = tested on: T-47D breast
TK-10 renal = tested on: TK-10 renal
U251 CNS = tested on: U251 CNS
UACC-257 melanoma = tested on: UACC-257 melanoma
UACC-62 melanoma = tested on: UACC-62 melanoma
UO-31 renal = tested on: UO-31 renal
HCC-2998 colon = tested on: HCC-2998 colon
HL-60(TB) leukemia = tested on: HL-60(TB) leukemia

`Cc1cc(NN)nc2n[nH]c(N)c12` was tested, and the TGI (786-0 renal) was > 100 µM, the TGI (A498 renal) was > 100 µM and the TGI (A549 NSCLC) was > 100 µM. For the same compound, the TGI (ACHN renal) was > 100 µM, the TGI (BT-549 breast) was > 100 µM and the TGI (CAKI-1 renal) was > 100 µM. For the same compound, the TGI (CCRF-CEM leukemia) was > 100 µM, the TGI (COLO 205 colon) was > 100 µM and the TGI (DU-145 prostate) was > 100 µM. For the same compound, the TGI (EKVX NSCLC) was > 100 µM, the TGI (HCT-116 colon) was > 100 µM and the TGI (HCT-15 colon) was > 100 µM. The TGI (HOP-62 NSCLC) was > 100 µM, the TGI (HOP-92 NSCLC) was > 100 µM and the TGI (HS 578T breast) was > 100 µM. For the same compound, the TGI (HT29 colon) was > 100 µM, the TGI (IGROV1 ovarian) was > 100 µM and the TGI (K-562 leukemia) was > 100 µM. The TGI (KM12 colon) was > 100 µM, the TGI (LOX IMVI melanoma) was > 100 µM and the TGI (M14 melanoma) was > 100 µM. For the same compound, the TGI (MALME-3M melanoma) was > 100 µM, the TGI (MCF7 breast) was > 100 µM and the TGI (MDA-MB-231 breast) was > 100 µM. For the same compound, the TGI (MDA-MB-435) was > 100 µM, the TGI (MOLT-4 leukemia) was > 100 µM and the TGI (NCI-H226 lung) was > 100 µM. For the same compound, the TGI (NCI-H23 lung) was > 100 µM, the TGI (NCI-H460 lung) was > 100 µM and the TGI (NCI-H522 lung) was > 100 µM. For the same compound, the TGI (NCI/ADR-RES ovarian) was > 100 µM, the TGI (OVCAR-3 ovarian) was > 100 µM and the TGI (OVCAR-4 ovarian) was > 100 µM. For the same compound, the TGI (OVCAR-5 ovarian) was > 100 µM, the TGI (OVCAR-8 ovarian) was > 100 µM and the TGI (PC-3 prostate) was > 100 µM. For the same compound, the TGI (RPMI-8226 leukemia) was > 100 µM, the TGI (RXF 393 renal) was > 100 µM and the TGI (SF-268 CNS) was > 100 µM. The TGI (SF-295 CNS) was > 100 µM, the TGI (SF-539 CNS) was > 100 µM and the TGI (SK-MEL-2 melanoma) was > 100 µM. For the same compound, the TGI (SK-MEL-28 melanoma) was > 100 µM, the TGI (SK-MEL-5 melanoma) was > 100 µM and the TGI (SK-OV-3 ovarian) was > 100 µM. The TGI (SN12C renal) was > 100 µM, the TGI (SNB-19 CNS) was > 100 µM and the TGI (SNB-75 CNS) was > 100 µM. The TGI (SR leukemia) was > 100 µM, the TGI (SW-620 colon) was > 100 µM and the TGI (T-47D breast) was > 100 µM. For the same compound, the TGI (TK-10 renal) was > 100 µM, the TGI (U251 CNS) was > 100 µM and the TGI (UACC-257 melanoma) was > 100 µM. The TGI (UACC-62 melanoma) was > 100 µM and the TGI (UO-31 renal) was > 100 µM.
For `CCCC(c1nnnn1C1CCCCC1)N1CCN(C(=O)c2ccco2)CC1` (configuration not stated), the GI50 (786-0 renal) was > 100 µM, the TGI (786-0 renal) was > 100 µM and the GI50 (A498 renal) was > 100 µM. For the same compound, the TGI (A498 renal) was > 100 µM, the GI50 (ACHN renal) was > 100 µM and the TGI (ACHN renal) was > 100 µM. The GI50 (BT-549 breast) was > 100 µM, the TGI (BT-549 breast) was > 100 µM and the GI50 (CAKI-1 renal) was > 100 µM. The TGI (CAKI-1 renal) was > 100 µM, the GI50 (COLO 205 colon) was > 100 µM and the TGI (COLO 205 colon) was > 100 µM. The GI50 (DU-145 prostate) was > 100 µM, the TGI (DU-145 prostate) was > 100 µM and the GI50 (HCC-2998 colon) was > 100 µM. For the same compound, the TGI (HCC-2998 colon) was > 100 µM, the GI50 (HCT-116 colon) was > 100 µM and the TGI (HCT-116 colon) was > 100 µM. The GI50 (HCT-15 colon) was > 100 µM, the TGI (HCT-15 colon) was > 100 µM and the GI50 (HL-60(TB) leukemia) was > 100 µM. For the same compound, the TGI (HL-60(TB) leukemia) was > 100 µM, the GI50 (HOP-62 NSCLC) was > 100 µM and the TGI (HOP-62 NSCLC) was > 100 µM. For the same compound, the GI50 (HOP-92 NSCLC) was > 100 µM, the TGI (HOP-92 NSCLC) was > 100 µM and the GI50 (HS 578T breast) was > 100 µM. For the same compound, the TGI (HS 578T breast) was > 100 µM, the GI50 (HT29 colon) was > 100 µM and the TGI (HT29 colon) was > 100 µM. The GI50 (IGROV1 ovarian) was > 100 µM, the TGI (IGROV1 ovarian) was > 100 µM and the GI50 (K-562 leukemia) was > 100 µM. For the same compound, the TGI (K-562 leukemia) was > 100 µM, the GI50 (KM12 colon) was > 100 µM and the TGI (KM12 colon) was > 100 µM. The GI50 (LOX IMVI melanoma) was > 100 µM, the TGI (LOX IMVI melanoma) was > 100 µM and the GI50 (M14 melanoma) was > 100 µM. For the same compound, the TGI (M14 melanoma) was > 100 µM, the GI50 (MALME-3M melanoma) was > 100 µM and the TGI (MALME-3M melanoma) was > 100 µM. The GI50 (MCF7 breast) was > 100 µM, the TGI (MCF7 breast) was > 100 µM and the GI50 (MDA-MB-231 breast) was > 100 µM. For the same compound, the TGI (MDA-MB-231 breast) was > 100 µM, the GI50 (MDA-MB-435) was > 100 µM and the TGI (MDA-MB-435) was > 100 µM. For the same compound, the GI50 (MOLT-4 leukemia) was > 100 µM, the TGI (MOLT-4 leukemia) was > 100 µM and the GI50 (NCI-H226 lung) was > 100 µM. For the same compound, the TGI (NCI-H226 lung) was > 100 µM, the GI50 (NCI-H23 lung) was > 100 µM and the TGI (NCI-H23 lung) was > 100 µM. For the same compound, the GI50 (NCI-H460 lung) was > 100 µM, the TGI (NCI-H460 lung) was > 100 µM and the GI50 (NCI/ADR-RES ovarian) was > 100 µM. For the same compound, the TGI (NCI/ADR-RES ovarian) was > 100 µM, the GI50 (OVCAR-3 ovarian) was > 100 µM and the TGI (OVCAR-3 ovarian) was > 100 µM. For the same compound, the GI50 (OVCAR-4 ovarian) was > 100 µM, the TGI (OVCAR-4 ovarian) was > 100 µM and the GI50 (OVCAR-5 ovarian) was > 100 µM. For the same compound, the TGI (OVCAR-5 ovarian) was > 100 µM, the GI50 (OVCAR-8 ovarian) was > 100 µM and the TGI (OVCAR-8 ovarian) was > 100 µM. For the same compound, the GI50 (PC-3 prostate) was > 100 µM, the TGI (PC-3 prostate) was > 100 µM and the GI50 (RPMI-8226 leukemia) was > 100 µM. The TGI (RPMI-8226 leukemia) was > 100 µM, the GI50 (RXF 393 renal) was > 100 µM and the TGI (RXF 393 renal) was > 100 µM. The GI50 (SF-268 CNS) was > 100 µM, the TGI (SF-268 CNS) was > 100 µM and the GI50 (SF-295 CNS) was > 100 µM. The TGI (SF-295 CNS) was > 100 µM, the GI50 (SF-539 CNS) was > 100 µM and the TGI (SF-539 CNS) was > 100 µM. The GI50 (SK-MEL-2 melanoma) was > 100 µM, the TGI (SK-MEL-2 melanoma) was > 100 µM and the GI50 (SK-MEL-28 melanoma) was > 100 µM. For the same compound, the TGI (SK-MEL-28 melanoma) was > 100 µM, the GI50 (SK-MEL-5 melanoma) was > 100 µM and the TGI (SK-MEL-5 melanoma) was > 100 µM. The GI50 (SK-OV-3 ovarian) was > 100 µM, the TGI (SK-OV-3 ovarian) was > 100 µM and the GI50 (SN12C renal) was > 100 µM. For the same compound, the TGI (SN12C renal) was > 100 µM, the GI50 (SNB-19 CNS) was > 100 µM and the TGI (SNB-19 CNS) was > 100 µM. The GI50 (SNB-75 CNS) was > 100 µM, the TGI (SNB-75 CNS) was > 100 µM and the GI50 (SR leukemia) was > 100 µM. For the same compound, the TGI (SR leukemia) was > 100 µM, the GI50 (SW-620 colon) was > 100 µM and the TGI (SW-620 colon) was > 100 µM. The GI50 (T-47D breast) was > 100 µM, the TGI (T-47D breast) was > 100 µM and the GI50 (TK-10 renal) was > 100 µM. The TGI (TK-10 renal) was > 100 µM, the GI50 (U251 CNS) was > 100 µM and the TGI (U251 CNS) was > 100 µM. The GI50 (UACC-62 melanoma) was > 100 µM, the TGI (UACC-62 melanoma) was > 100 µM and the GI50 (UO-31 renal) was > 100 µM. For the same compound, the TGI (UO-31 renal) was > 100 µM.
